Data from US9999649B2, “Peptide having ability to synthesize collagen and use thereof” (NOVACELL TECHNOLOGY INC., priority 2013, dated 2018).
No end group written: not given here. *: point of attachment. Palmitoyl = CCCCCCCCCCCCCCCC(=O)*; Oleyl = CCCCCCCC/C=C\CCCCCCCC*

Assays:
Type in all cases: cell-based, human
[1] = test system: collagen I expression induced by YIGSR peptide; test: YIGSR peptide-induced collagen I expression under FAK and MEK inhibitors, western blot; settings: Hs27 cells, 1 μM inhibitor with 1 μM YIGSR peptide, 24 hours
Description: To evaluate whether collagen I expression induced by YIGSR peptide according to one embodiment of the present invention is mediated by FAK and MAPK or not, FAK and MEK inhibitors were used.
Hs27 cells of Example 3 were cultured in a 24-well plate provided that the cells were cultured in a serum-free state for 24 hours. Then, the cells were treated with 1 μM of the FAK-specific inhibitor, PF573228 (Tocris Bioscience, United Kingdom) for 24 hours.

type I collagen = test: Type I collagen synthesis by Pal-YIGSR peptide, immunoblotting in Hs27 skin fibroblasts; settings: for effect compared with the original YIGSR peptide: collagen I production, summary statement b41
Description: Hs27 skin fibroblasts, which are under culture, were treated with the peptide derivatives prepared in Examples 1 and 2, and Comparative Example 2, and an amount of expressed type I collagen in the cells were measured by an immunoblotting method. The Hs27 skin fibroblasts were cultured by using DMEM medium, (Lonza, USA), to which 10% FBS was added (Lonza, USA), under the condition of 95% of humidity, 5% CO2, and 37° C. Hs27 skin fibroblasts were treated with each concentration of the peptide (0, 2, 25, 50 and 100 μM) for 24 hours or 100 μM of the peptide for each period of time (0, 0.5, 6, 12 and 24 hours). Then, the treated cells were sonicated in the lysis buffer (150 mM NaCl, 1% Triton X-100, 10 mM Tris, 1 mM EDTA, pH 7.4). Thereafter, supernatant was isolated through centrifugation, and quantification was performed through Bradford assay. The same amount of a protein was mixed in a 5× sample buffer and the mixture was heated for 5 minutes at 95° C. The resultant was electrophoresed on 6-15% concentration gradient SDS-Polyacrylamide gel electrophoresis (SDS-PAGE) and then adsorbed to a nitrocellulose membrane. Anti-type I collagen primary antibody (Rockland, USA), anti-phospho-ERK primary antibody (Cell signaling, USA), and anti-actin primary antibody (Santa Cruz, USA) were diluted in TBST buffer (Tris buffered saline with 0.05% Tween 20, pH 7.6) including 5% skimmed milk and reacted for 16 hours. Then, the resultant was washed with TBST for 10 minutes 6 times. Then, the membrane was treated with anti-mouse rabbit peroxidase-conjugated secondary antibody (KPL, USA) for reaction for one hour at room temperature, and washed again with TBST 6 times for 10 minutes followed by development with the enhanced chemiluminescent (ECL) solution (Amersham, USA) for evaluation.

ERK = ERK phosphorylation by Pal-YIGSR peptide, immunoblotting in Hs27 skin fibroblasts; settings: FIG. 8
Description: Hs27 skin fibroblasts, which are under culture, were treated with the peptide derivatives prepared in Examples 1 and 2, and Comparative Example 2, and an amount of expressed type I collagen in the cells were measured by an immunoblotting method. The Hs27 skin fibroblasts were cultured by using DMEM medium, (Lonza, USA), to which 10% FBS was added (Lonza, USA), under the condition of 95% of humidity, 5% CO2, and 37° C. Hs27 skin fibroblasts were treated with each concentration of the peptide (0, 2, 25, 50 and 100 μM) for 24 hours or 100 μM of the peptide for each period of time (0, 0.5, 6, 12 and 24 hours). Then, the treated cells were sonicated in the lysis buffer (150 mM NaCl, 1% Triton X-100, 10 mM Tris, 1 mM EDTA, pH 7.4). Thereafter, supernatant was isolated through centrifugation, and quantification was performed through Bradford assay. The same amount of a protein was mixed in a 5× sample buffer and the mixture was heated for 5 minutes at 95° C. The resultant was electrophoresed on 6-15% concentration gradient SDS-Polyacrylamide gel electrophoresis (SDS-PAGE) and then adsorbed to a nitrocellulose membrane. […]

collagen = test: Influence of palmitoyl group: collagen synthesis by RGD and Pal-RGD peptides; settings: FIG. 10
Description: Then, the treated cells were sonicated in the lysis buffer (150 mM NaCl, 1% Triton X-100, 10 mM Tris, […], pH 7.4). Thereafter, supernatant was isolated through centrifugation, and quantification was performed through Bradford assay. The same amount of a protein was mixed in a 5× sample buffer, and the mixture was heated for 5 minutes at 95° C. The resultant was electrophoresed on 6-15% concentration gradient SDS-polyacrylamide gel electrophoresis (SDS-PAGE), and then adsorbed to a nitrocellulose membrane. An anti-type I collagen primary antibody (Rockland, USA) and anti-actin primary antibody (Santa Cruz, USA) were diluted in TBST buffer (Tris buffered saline with 0.05% Tween 20, pH 7.6) including 5% skimmed milk and reacted for 16 hours. Then, the resultant was washed with TBST for 10 minutes 6 times. Thereafter, the membrane was treated with an anti-mouse rabbit peroxidase-conjugated secondary antibody (KPL, USA) for reaction for one hour at room temperature, and washed again with TBST 6 times for 10 minutes followed by development with the enhanced chemiluminescent (ECL) solution (Amersham, USA) for evaluation. In addition, the western blot image was quantitatively compared with densitometric analysis by using image J program (Ver 1.38, //rsbweb.nih.gov/ij/index.html). […]

Hs27 skin fibroblasts = test: Cell growth by crystal violet assay; settings: 72 hours
Description: The Hs27 skin fibroblasts were seeded on a 24-well culture plate (40,000 cells per each), and cultured under 5% CO2, and 37° C. for 24 hours to allow cells to be attached to a bottom of the culture plate. Next day, a medium was changed to a medium including FBS. Then, cells were cultured again for 24 hours and treated with the peptide derivatives of Examples 1 and 2, and Comparative Examples 1 and 2 followed by further culture of 72 hours. Then, cell growth was measured through crystal violet assay.
Specifically, the medium in each well was removed, and […] of 0.1% crystal violet solution was added to each well followed by 5 minutes of staining. Then, the crystal violet solution was removed, and wells were washed with deionized water four times until the well became transparent. When the washed distilled water became transparent, distilled water was removed. Then, 1 ml of 95% ethanol was added with stirring for 20 minutes to dissolve crystal violet from stained cells. […] of the solution was dispensed to a 96-well plate, and absorbance was measured at 590 nm by using ELISA reader. Then, relative cell growth was calculated by using, as a control, a group which was not treated with a material to be tested.

Compound	effect of inhibitor on collagen I expression induced by YIGSR peptide [1]	effect compared with the original YIGSR peptide (type I collagen)	ERK phosphorylation induction (ERK)	collagen synthesis degree versus control (collagen)	also measured
COc1cccc(-c2cc(=O)c3ccccc3o2)c1N [PD98059]	remarkably inhibited	–	–	–	–
CS(=O)(=O)c1cccc(CNc2nc(Nc3ccc4c(c3)CCC(=O)N4)ncc2C(F)(F)F)c1 [PF573228]	remarkably repressed	–	–	–	–
Oleyl-YIGSR [YIGSR peptide having an N-terminal, to which an oleyl group is added instead of the palmitoyl group]	–	no improved activity	rarely affect ERK phosphorylation	–	degree of collagen synthesis compared with control and Pal-YIGSR (type I collagen; Hs27 skin fibroblasts, FIG. 7): no difference from the control
Pal-RGD [Pal-RGD peptide]	–	–	–	not significantly different from that of the control	–
Palmitoyl-YIGSR [Pal-YIGSR, peptide derivative in which a palmitoyl group is attached to an N-terminal of the YIGSR peptide]	–	more potent effect than the YIGSR peptide	observed	–	amount of synthesized collagen depending on concentration (type I collagen; 0, 2, 25, 50 and 100 μM, 24 hours): increased as concentration increased; amount of synthesized collagen depending on exposure time (type I collagen; 100 μM, 0, 0.5, 6, 12 and 24 hours): increased as exposure time increased; cell growth relative to untreated control (Hs27 skin fibroblasts; 100 μM): 13%; cell growth relative to untreated control (Hs27 skin fibroblasts; 500 μM): 23%; concentration range in which cell growth was shown (Hs27 skin fibroblasts): 0.5 to 50 µM
RGD [RGD peptide]	–	–	–	not significantly different from that of the control	–
